# According to paper PMC4467156, “A new chemical inhibitor of angiogenesis and tumorigenesis that targets the VEGF signaling pathway upstream of Ras” (Oncotarget, 2015):
# Columns and labels:
# HUVEC cells [1] = test: Scratch assay on HUVEC with or without mitomycin C; assay type: cell-based, human; conditions: HUVEC, 25 μM COB223, mitomycin C 2 μg/mL pretreatment, 24 h and 48 h
# Method: Confluent cell monolayers were wounded with a plastic pipet tip, washed gently with phosphate buffer saline (PBS) and treated with complete media containing molecules, as indicated. Cells were placed at 37°C into the incubator and photographed at indicated times. Quantitation of closure of the monolayer was performed using the NIH Image J program (http://rsbweb.nih.gov/ij/). Results are expressed as percentage of wound closure at t = 24 h as compared to the initial wound at t = 0 h. […]
# www.impactjournals.com/oncotarget/ Oncotarget, Supplementary Materials 2015 […]
# Figure S1: Effect of COB223 on endothelial cell migration. (A) Scratch assay: Confluent HUVEC cells were pretreated for 24 h without (CTL) or with 2 μg/mL of mitomycin C before a wound was made in the cell monolayer. After wounding, cells were incubated at 37°C in the absence or the presence of 25 μM COB223. Wound closure was measured after 24 h and 48 h of incubation as described in Material and Methods. […]
# (B) Boyden chamber assay: The technique is described in Material and Methods. We measured the passage of fluorescently labeled HUVEC cells through a 3 μm-porous membrane in response to fetal calf serum used as a chemo-attractant. […] The Figure represents the mean fluorescence ± SD of duplicate determinations after 24 h or 48h of incubation from two independent experiments. […]
# 3T3 cells = test: Cell viability WST-1, 3T3; assay type: cell-based; conditions: confluent 3T3, 24 h at 37°C
# Method: Once they had reached confluency, cells were kept for 24 hours in medium supplemented with 0.5% FCS (LLC/2 and 3T3 cells) or 2.5% FCS (HUVEC and HMVEC-d cells), in the presence of COB223 at different concentrations. WST-1 assay (Roche Diagnostic, Meylan, France) was then performed according to the manufacturer's instructions.
# [2] = tested on: neovascular response to FGF-2; test: Mouse sponge angiogenesis assay; assay type: in vivo; conditions: Balb/c mice, COB223 100 μM injected into sponge, day 7
# Method: Disc Cellspon cellulose sponges (thickness 2 mm, diameter 10 mm, Cellomeda; Turku, Finland) were implanted under the skin of Balb-c mice under general anesthesia. Mice were divided in three groups receiving either DMSO, FGF-2, or FGF-2 and COB223 (groups of respectively 6, 7 and 8 mice). […] DMSO, FGF-2 and/or COB223 (50 μL) were injected again into the sponges through the skin on day 1 and 2. A third injection of COB223 alone was performed on day 4. On day 7, the vascularization of the sponges was imaged by non-invasive fluorescence imaging after i.p. injection of RAFT-(cRGD)4 (Angiostamp^TM, Fluoptics, Grenoble, France) as described in [9]. The mice were then anesthetized and sacrificed by cervical dislocation on day 7 and the sponges were rapidly excised and photographed. Each sponge was then homogenized in 1 mL RIPA lysis buffer and the supernatants were used for quantification. The extent of vascularization of the sponge implants was assessed by measuring the amount of hemoglobin using the Drabkin's reagent (Sigma).
# HUVEC cells [3] = test: Binding of 125I-VEGF-A121 to HUVEC cells; set-up: species or system human; conditions: data not shown
# VEGFR2 phosphorylation = test: Western blot, VEGFR2 autophosphorylation in HUVEC; assay type: cell-based, human; conditions: 10 ng/mL VEGF-A 15 min, 25 μM COB223
# Method: Figure 9 Effect of COB223 on growth factor-induced VEGF-R2, MEK and ERK phosphorylations (A) Serum-starved HUVEC cells were incubated for 15 min in the presence of either 10 ng/mL VEGF-A or 20 ng/mL FGF-2 and in the absence or the presence of 25 μM COB223. The phosphorylations of VEGFR2 on tyrosine 1175 or tyrosine 1214, of MEK and ERK1/2 were then analyzed by Western blot analysis of the cell lysates as described in Material and Methods. Western blots for total VEGFR2, MEK and ERK1/2 were used as loading controls. The blots shown in Figure 9A were obtained in one representative experiment. (B) The hybridization signals observed in 5 similar but independent experiments were quantitated and the ratios between phospho-VEGFR2(Y1175) or (Y1214) and VEGFR2 signals were normalized to the value observed in the absence of COB223. (C) The hybridization signals observed in 5 similar but independent experiments were quantitated and the ratios between phospho-ERK1/2 and ERK1/2 and between phospho-MEK and MEK were normalized to the values observed in the absence of COB223. Additional experiments performed with 10% fetal calf serum (FCS) as a mitogen were included in this analysis. * : p < 0.05; ** : p < 0.01
# Serum-starved HUVEC cells were incubated for 15 min in the presence of either 10 ng/mL VEGF-A or 20 ng/mL FGF-2 and in the absence or the presence of indicated concentration of COB223. […]
# [4] = tested on: p38 MAP kinase phosphorylation; test: p38 MAP kinase phosphorylation in HUVEC; assay type: cell-based, human; conditions: data not shown
# src phosphorylation = src phosphorylation in HUVECs; assay type: cell-based, human; conditions: data not shown
smiles,measurement,setting,value
"CN(C)c1cccc2c(S(=O)(=O)NCCCN3CCN(CCCNC(=O)OC(C)(C)C)CC3)cccc12 [COB223, tert-Butyl 3-(4-(3-(5-(dimethylamino)naphthalene-1-sulfonamido)propyl)piperazin-1-yl) propylcarbamate]",endothelial cell wound closure in the presence of mitomycin C,HUVEC cells [1],still inhibited
same,cytotoxic concentrations,3T3 cells,> 50 µM
same,neovascular response to FGF-2 (hemoglobin content and fluorescence imaging),[2],strong inhibition
same,binding of 125I-VEGF-A121 to HUVEC cells,HUVEC cells [3],unaffected
same,autophosphorylation of VEGFR2 on tyrosine 1175,VEGFR2 phosphorylation,did not alter
same,autophosphorylation of VEGFR2 on tyrosine 1214,VEGFR2 phosphorylation,did not alter
same,activation of p38 MAP kinase phosphorylation by VEGF or serum,[4],unaffected
same,activation of src phosphorylation by VEGF,src phosphorylation,unaffected
